From patent US9938299B2, “Glycosidase inhibitors and uses thereof” (MERCK SHARP & DOHME CORP., priority 2012, dated 2018)
pKi: −log10 of the molar value.

Target: T1, human O-GlcNAcase (Homo sapiens, UniProt O60502)
T1 sequence (O60502 1-916): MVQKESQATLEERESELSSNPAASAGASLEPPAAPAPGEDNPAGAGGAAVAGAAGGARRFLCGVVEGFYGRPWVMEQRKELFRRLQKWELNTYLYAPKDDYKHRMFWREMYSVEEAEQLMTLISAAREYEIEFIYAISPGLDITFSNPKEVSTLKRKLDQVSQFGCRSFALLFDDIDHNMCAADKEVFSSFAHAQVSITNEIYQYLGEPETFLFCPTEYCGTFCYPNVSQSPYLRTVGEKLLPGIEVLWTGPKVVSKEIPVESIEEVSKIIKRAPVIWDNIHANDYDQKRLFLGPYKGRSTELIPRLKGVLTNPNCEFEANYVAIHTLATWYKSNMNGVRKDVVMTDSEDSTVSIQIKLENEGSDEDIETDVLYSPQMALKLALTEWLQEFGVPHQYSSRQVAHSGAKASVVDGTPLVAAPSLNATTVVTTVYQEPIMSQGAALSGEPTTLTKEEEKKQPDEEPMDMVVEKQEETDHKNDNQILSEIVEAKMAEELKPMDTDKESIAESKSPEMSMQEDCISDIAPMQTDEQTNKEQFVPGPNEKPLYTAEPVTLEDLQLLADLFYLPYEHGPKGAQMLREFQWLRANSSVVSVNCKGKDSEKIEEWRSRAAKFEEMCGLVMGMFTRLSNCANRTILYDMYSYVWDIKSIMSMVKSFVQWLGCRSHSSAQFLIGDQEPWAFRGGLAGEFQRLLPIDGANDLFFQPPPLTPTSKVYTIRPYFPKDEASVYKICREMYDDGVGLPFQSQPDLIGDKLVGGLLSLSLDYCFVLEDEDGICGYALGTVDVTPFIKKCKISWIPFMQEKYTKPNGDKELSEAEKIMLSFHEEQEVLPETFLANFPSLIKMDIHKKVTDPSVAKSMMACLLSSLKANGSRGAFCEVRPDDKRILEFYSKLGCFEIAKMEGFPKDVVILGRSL
Assay: Determination of KI values for inhibition of O-GlcNAcase activity (fluorogenic 4-methylumbelliferyl GlcNAc substrate)
Assay type: biochemical
Conditions: not given
Protocol: Assay for Determination of […] for Inhibition of O-GlcNAcase Activity
Experimental procedure for kinetic analyses: Enzymatic reactions were carried out in a reaction containing 50 mM NaH2PO4, 100 mM NaCl and 0.1% BSA (pH 7.0) using 2 mM 4-Methylumbelliferyl N-acetyl-β-D-glucosaminide dihydrate (Sigma M2133) dissolved in ddH2O, as a substrate. The amount of purified human O-GlcNAcase enzyme used in the reaction was 0.7 nM. Test compound of varying concentrations was added to the enzyme prior to initiation of the reaction. The reaction was performed at room temperature in a 96-well plate and was initiated with the addition of substrate. […] The slope of product production was determined for each concentration of compound tested and plotted, using standard curve fitting algorithms for sigmoidal dose response curves. The values for a four parameter logistic curve fit of the data were determined.

pKi | Compound
5.73 | CCNC1=N[C@@H]2[C@@H](O)[C@H](O)[C@@H](C(=O)N(C)C)O[C@@H]2S1 [Example 51, (3aR,5S,6S,7R,7aR)-2-(ethylamino)-6,7-dihydroxy-N,N-dimethyl-5,6,7,7a-tetrahydro-3aH-pyrano[3,2-d]thiazole-5-carboxamide]

Same assay, conditions: purified human O-GlcNAcase 0.7 nM, 2 mM substrate, pH 7.0, room temperature; Cheng-Prusoff; read-out: Ki

Compound | pKi
CNC1=N[C@@H]2[C@@H](O)[C@H](O)[C@@H](CS(=O)(=O)Cc3ccccc3)O[C@@H]2S1 [Example 62, (3aR,5S,6S,7R,7aR)-5-((benzylsulfonyl)methyl)-2-(methylamino)-5,6,7,7a-tetrahydro-3aH-pyrano[3,2-d]thiazole-6,7-diol] | 6.45
CNC1=N[C@@H]2[C@@H](O)[C@H](O)[C@@H](CCCc3ccc(OC)cc3)O[C@@H]2S1 [Example 34, (3aR,5R,6S,7R,7aR)-5-[3-(4-methoxyphenyl)propyl]-2-(methylamino)-5,6,7,7a-tetrahydro-3aH-pyrano[3,2-d][1,3]thiazole-6,7-diol] | 7.95
CN(C)C1=N[C@@H]2[C@@H](O)[C@H](O)[C@@H]([C@@](O)(Cc3ccccc3)C(F)(F)F)O[C@@H]2S1 [Example 26, (3aR,5S,6S,7R,7aR)-2-(dimethylamino)-5-(1,1,1-trifluoro-2-hydroxy-3-phenylpropan-2-yl)-5,6,7,7a-tetrahydro-3aH-pyrano[3,2-d]thiazole-6,7-diol] | 7.18
CN(C)C1=N[C@@H]2[C@@H](O)[C@H](O)[C@@H]([C@@H](O)CCc3ccccc3)O[C@@H]2S1 [Example 24, (3aR,5R,6S,7R,7aR)-2-(dimethylamino)-5-((S)-1-hydroxy-3-phenylpropyl)-5,6,7,7a-tetrahydro-3aH-pyrano[3,2-d]thiazole-6,7-diol] | 7.82
COc1ccc(CC[C@@H]([C@H]2O[C@@H]3SC(N(C)C)=N[C@@H]3[C@@H](O)[C@@H]2O)C(F)(F)F)cc1 (single isomer, unassigned) [Example 2] | 8.80
CNC(=O)CC[C@H]1O[C@@H]2SC(N(C)C)=N[C@@H]2[C@@H](O)[C@@H]1O [Example 13, 3-((3aR,5R,6S,7R,7aR)-2-(dimethylamino)-6,7-dihydroxy-5,6,7,7a-tetrahydro-3aH-pyrano[3,2-d]thiazol-5-yl)-N-methylpropanamide] | 7.00
CN(C)C1=N[C@@H]2[C@@H](O)[C@H](O)[C@@H](C(O)(CCc3ccccc3)C(F)(F)F)O[C@@H]2S1 (stereo in doubt) [Example 27, (3aR,5S,6S,7R,7aR)-2-(dimethylamino)-5-((S)-1,1,1-trifluoro-2-hydroxy-4-phenylbutan-2-yl)-5,6,7,7a-tetrahydro-3aH-pyrano[3,2-d]thiazole-6,7-diol] | 9.04
C=CCNC1=N[C@@H]2[C@@H](O)[C@H](O)[C@@H](CC#N)O[C@@H]2S1 [Example 32, 2-((3aR,5R,6S,7R,7aR)-2-(allylamino)-6,7-dihydroxy-5,6,7,7a-tetrahydro-3aH-pyrano[3,2-d]thiazol-5-yl)acetonitrile] | 6.89
CN(C)C1=N[C@@H]2[C@@H](O)[C@H](O)[C@@H]([C@H](O)Cc3ccccc3)O[C@@H]2S1 [Example 20, (3aR,5R,6S,7R,7aR)-2-(dimethylamino)-5-((R)-1-hydroxy-2-phenylethyl)-5,6,7,7a-tetrahydro-3aH-pyrano[3,2-d]thiazole-6,7-diol] | 6.13
CN(C)C1=N[C@@H]2[C@@H](O)[C@H](O)[C@@H]([C@@](O)(CCc3ccccc3)C(F)(F)F)O[C@@H]2S1 (stereo in doubt) [Example 28, (3aR,5S,6S,7R,7aR)-2-(dimethylamino)-5-(1,1,1-trifluoro-2-hydroxy-4-phenylbutan-2-yl)-5,6,7,7a-tetrahydro-3aH-pyrano[3,2-d]thiazole-6,7-diol] | 6.50

The remaining lines, values ahead:

pKi | Compound
7.12 | CNC1=N[C@@H]2[C@@H](O)[C@H](O)[C@@H](CS(=O)(=O)c3ccccc3)O[C@@H]2S1 [Example 60, (3aR,5 S,6S,7R,7aR)-2-(methylamino)-5-((phenylsulfonyl)methyl)-5,6,7,7a-tetrahydro-3 aH-pyrano[3,2-d]thiazole-6,7-diol]
8.72 | CNC1=N[C@@H]2[C@@H](O)[C@H](O)[C@@H](CSc3ccccc3)O[C@@H]2S1 [Example 59, (3aR,5 S,6S,7R,7aR)-2-(methylamino)-5-((phenylthio)methyl)-5,6,7,7a-tetrahydro-3aH-pyrano[3,2-d]thiazole-6,7-diol]
5.60 | CCN(CC)C(=O)[C@H]1O[C@@H]2SC(NC)=N[C@@H]2[C@@H](O)[C@@H]1O [Example 45, (3aR,5S,6S,7R,7aR)-N,N-diethyl-6,7-dihydroxy-2-(methylamino)-5,6,7,7a-tetrahydro-3aH-pyrano[3,2-d]thiazole-5-carboxamide]
6.23 | CNC1=N[C@@H]2[C@@H](O)[C@H](O)[C@@H](C(=O)NC(C)C)O[C@@H]2S1 [Example 43, (3aR,5S,6S,7R,7aR)-6,7-dihydroxy-N-isopropyl-2-(methylamino)-5,6,7,7a-tetrahydro-3aH-pyrano[3,2-d]thiazole-5-carboxamide]
5.71 | CCNC1=N[C@@H]2[C@@H](O)[C@H](O)[C@@H](C(=O)NC3CC3)O[C@@H]2S1 [Example 46, (3aR,5S,6S,7R,7aR)-N-cyclopropyl-2-(ethylamino)-6,7-dihydroxy-5,6,7,7a-tetrahydro-3aH-pyrano[3,2-d]thiazole-5-carboxamide]
7.20 | C=C([C@H]1O[C@@H]2SC(NC)=N[C@@H]2[C@@H](O)[C@@H]1O)C(F)(F)F [Example 15, (3aR,5R,6S,7R,7aR)-2-(methylamino)-5-(3,3,3-trifluoroprop-1-en-2-yl)-5,6,7,7a-tetrahydro-3aH-pyrano[3,2-d]thiazole-6,7-diol]
7.62 | CNC1=N[C@@H]2[C@@H](O)[C@H](O)[C@@H](CCN)O[C@@H]2S1 [Example 40, (3aR,5R,6S,7R,7aR)-5-(2-aminoethyl)-2-(methylamino)-5,6,7,7a-tetrahydro-3aH-pyrano[3,2-d]thiazole-6,7-diol]
6.01 | CNC1=N[C@@H]2[C@@H](O)[C@H](O)[C@@H](C(=O)NC3CC3)O[C@@H]2S1 [Example 42, (3aR,5S,6S,7R,7aR)-N-cyclopropyl-6,7-dihydroxy-2-(methylamino)-5,6,7,7a-tetrahydro-3aH-pyrano[3,2-d]thiazole-5-carboxamide]
7.79 | COc1ccc(C/C=C(/[C@H]2O[C@@H]3SC(N(C)C)=N[C@@H]3[C@@H](O)[C@@H]2O)C(F)(F)F)cc1 (single isomer, unassigned) [Example 4]
8.08 | CNCC[C@H]1O[C@@H]2SC(NC)=N[C@@H]2[C@@H](O)[C@@H]1O [Example 41, (3aR,5R,6S,7R,7aR)-2-(methylamino)-5-(2-(methylamino)ethyl)-5,6,7,7a-tetrahydro-3aH-pyrano[3,2-d]thiazole-6,7-diol]
6.85 | CCNC1=N[C@@H]2[C@@H](O)[C@H](O)[C@@H](C(=O)NC(C)C)O[C@@H]2S1 [Example 49, (3aR,5S,6S,7R,7aR)-2-(ethylamino)-6,7-dihydroxy-N-isopropyl-5,6,7,7a-tetrahydro-3aH-pyrano[3,2-d]thiazole-5-carboxamide]

Target: T2, hPgp (Homo sapiens, UniProt P08183)
T2 construct: expressed in transfected cells; host or cells: LLC-PK1 cells
T2 sequence (P08183 whole entry): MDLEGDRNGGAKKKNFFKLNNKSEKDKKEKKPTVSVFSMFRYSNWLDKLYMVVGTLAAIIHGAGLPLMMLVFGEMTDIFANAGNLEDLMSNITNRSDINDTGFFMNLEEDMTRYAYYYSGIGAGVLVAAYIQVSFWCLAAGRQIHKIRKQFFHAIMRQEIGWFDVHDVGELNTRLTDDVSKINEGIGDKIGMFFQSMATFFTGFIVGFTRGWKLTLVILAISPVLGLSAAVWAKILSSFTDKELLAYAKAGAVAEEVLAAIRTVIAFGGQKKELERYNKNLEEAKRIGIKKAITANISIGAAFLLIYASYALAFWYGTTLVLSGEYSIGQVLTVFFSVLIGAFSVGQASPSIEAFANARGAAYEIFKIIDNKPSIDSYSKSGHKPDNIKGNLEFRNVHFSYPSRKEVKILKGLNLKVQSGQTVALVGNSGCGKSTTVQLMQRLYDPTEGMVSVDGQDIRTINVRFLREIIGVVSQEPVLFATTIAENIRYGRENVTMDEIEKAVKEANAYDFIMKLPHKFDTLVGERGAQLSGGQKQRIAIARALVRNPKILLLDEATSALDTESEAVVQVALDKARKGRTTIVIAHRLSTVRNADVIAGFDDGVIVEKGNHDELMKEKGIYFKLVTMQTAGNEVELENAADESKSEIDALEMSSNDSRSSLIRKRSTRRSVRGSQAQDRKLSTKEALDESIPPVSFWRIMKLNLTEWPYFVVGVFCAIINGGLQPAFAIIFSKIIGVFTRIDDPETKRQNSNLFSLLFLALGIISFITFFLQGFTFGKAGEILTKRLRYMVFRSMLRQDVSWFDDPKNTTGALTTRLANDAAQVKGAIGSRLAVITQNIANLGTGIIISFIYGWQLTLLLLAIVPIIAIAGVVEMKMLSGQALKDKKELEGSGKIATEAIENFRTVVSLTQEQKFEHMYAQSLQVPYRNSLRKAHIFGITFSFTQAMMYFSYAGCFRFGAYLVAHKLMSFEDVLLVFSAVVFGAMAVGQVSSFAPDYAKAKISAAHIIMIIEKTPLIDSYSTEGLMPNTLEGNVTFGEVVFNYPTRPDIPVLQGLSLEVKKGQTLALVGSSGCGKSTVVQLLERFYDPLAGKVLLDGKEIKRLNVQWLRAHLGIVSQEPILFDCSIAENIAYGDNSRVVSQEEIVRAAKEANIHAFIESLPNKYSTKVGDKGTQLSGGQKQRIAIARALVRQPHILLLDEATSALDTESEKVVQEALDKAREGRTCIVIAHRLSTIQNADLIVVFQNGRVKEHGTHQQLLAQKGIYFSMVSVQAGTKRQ
Assay: hPgp efflux ratio (Papp B→A/A→B ratio)
Assay type: in vitro ADME
Conditions: LLC-PK1
Protocol: (§1) Bi-directional transport was evaluated in LLC-PK1 cells in order to determine apparent permeability (Papp). LLC-PK1 cells can form a tight monolayer and therefore can be used to assess vectorial transport of compounds from basolateral to apical (B→A) and from apical to basolateral (A→B).
(§2) To determine Papp LLC-PK1 cells were cultured in 96-well transwell culture plates (Millipore). Solutions containing the test compounds (1 μM) were prepared in Hank's Balanced Salt Solution with 10 mM HEPES. Substrate solution (150 μL) was added to either the apical (A) or the basolateral (B) compartment of the culture plate, and buffer (150 μL) was added to the compartment opposite to that containing the compound. At t=3 h, 50 μL samples were removed from both sides of monolayers dosed with test compound and placed in 96 well plates, scintillant (200 μL) or internal standard (100 μL labetolol 1 μM) was added to the samples and concentration was determined by liquid scintillation counting in a MicroBeta Wallac Trilux scintillation counter (Perkin Elmer Life Sciences, Boston, Mass.) or by LCMS/MS (Applied Biosystems SCIEX API 5000 triple quadruple mass spectrometer). [^3H]Verapamil (1 μM) was used as the positive control. The experiment was performed in triplicate.

efflux ratio at 3 h, 1 μM | Compound
1.1 | CNC1=N[C@@H]2[C@@H](O)[C@H](O)[C@@H](CS(=O)(=O)Cc3ccccc3)O[C@@H]2S1 [Example 62, (3aR,5S,6S,7R,7aR)-5-((benzylsulfonyl)methyl)-2-(methylamino)-5,6,7,7a-tetrahydro-3aH-pyrano[3,2-d]thiazole-6,7-diol]
3.4 | CNC1=N[C@@H]2[C@@H](O)[C@H](O)[C@@H](CCCc3ccc(OC)cc3)O[C@@H]2S1 [Example 34, (3aR,5R,6S,7R,7aR)-5-[3-(4-methoxyphenyl)propyl]-2-(methylamino)-5,6,7,7a-tetrahydro-3aH-pyrano[3,2-d][1,3]thiazole-6,7-diol]

Tested on: not listed separately
Assay: Determination of apparent permeability (Papp), bi-directional transport in LLC-PK1 cells
Assay type: in vitro ADME
Conditions: pig, t=3 h, average of A to B and B to A
Protocol: as §1, §2

Papp at 3 h, 1 μM | Compound
1.3 ×10⁻⁶ cm/s | CNC1=N[C@@H]2[C@@H](O)[C@H](O)[C@@H](CS(=O)(=O)Cc3ccccc3)O[C@@H]2S1 [Example 62, (3aR,5S,6S,7R,7aR)-5-((benzylsulfonyl)methyl)-2-(methylamino)-5,6,7,7a-tetrahydro-3aH-pyrano[3,2-d]thiazole-6,7-diol]
25 ×10⁻⁶ cm/s | CNC1=N[C@@H]2[C@@H](O)[C@H](O)[C@@H](CCCc3ccc(OC)cc3)O[C@@H]2S1 [Example 34, (3aR,5R,6S,7R,7aR)-5-[3-(4-methoxyphenyl)propyl]-2-(methylamino)-5,6,7,7a-tetrahydro-3aH-pyrano[3,2-d][1,3]thiazole-6,7-diol]
